This note sets out measurements from ChEMBL document CHEMBL3991601, “The target landscape of clinical kinase drugs” (Science, 2017).

Some targets named below: Ephrin type-A receptor 2 (Homo sapiens, UniProt P29317); Midasin (Homo sapiens, UniProt Q9NU22); Myosin-14 (Homo sapiens, UniProt Q7Z406); Activated CDC42 kinase 1 (Homo sapiens, UniProt Q07912).
In experiment [1] the target is Cyclin-dependent kinase 13 (Homo sapiens, UniProt Q14004).
The target of experiment [2] is Tyrosine-protein kinase Fyn (Homo sapiens, UniProt P06241).
Chain of Tyrosine-protein kinase Fyn (P06241 whole entry): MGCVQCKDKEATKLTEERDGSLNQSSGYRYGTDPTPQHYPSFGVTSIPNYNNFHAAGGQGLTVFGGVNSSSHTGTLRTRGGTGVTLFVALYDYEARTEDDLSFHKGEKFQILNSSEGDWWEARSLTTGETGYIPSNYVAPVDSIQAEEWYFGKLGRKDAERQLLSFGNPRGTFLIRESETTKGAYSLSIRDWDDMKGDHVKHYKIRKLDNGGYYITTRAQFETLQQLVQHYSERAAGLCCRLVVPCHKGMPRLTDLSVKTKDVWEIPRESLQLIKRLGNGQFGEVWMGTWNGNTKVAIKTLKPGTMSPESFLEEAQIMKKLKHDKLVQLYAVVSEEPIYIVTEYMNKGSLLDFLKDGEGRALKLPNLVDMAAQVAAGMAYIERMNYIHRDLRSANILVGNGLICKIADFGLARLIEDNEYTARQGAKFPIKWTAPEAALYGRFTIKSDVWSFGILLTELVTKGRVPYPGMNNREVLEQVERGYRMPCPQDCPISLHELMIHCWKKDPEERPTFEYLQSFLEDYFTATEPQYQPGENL
Experiment [3] has as its target Inosine-5'-monophosphate dehydrogenase 2 (Homo sapiens, UniProt P12268).
Experiment [4] deals with T1, Serine/threonine-protein kinase Nek9 (Homo sapiens, UniProt Q8TD19).
T1 sequence (Q8TD19 whole entry): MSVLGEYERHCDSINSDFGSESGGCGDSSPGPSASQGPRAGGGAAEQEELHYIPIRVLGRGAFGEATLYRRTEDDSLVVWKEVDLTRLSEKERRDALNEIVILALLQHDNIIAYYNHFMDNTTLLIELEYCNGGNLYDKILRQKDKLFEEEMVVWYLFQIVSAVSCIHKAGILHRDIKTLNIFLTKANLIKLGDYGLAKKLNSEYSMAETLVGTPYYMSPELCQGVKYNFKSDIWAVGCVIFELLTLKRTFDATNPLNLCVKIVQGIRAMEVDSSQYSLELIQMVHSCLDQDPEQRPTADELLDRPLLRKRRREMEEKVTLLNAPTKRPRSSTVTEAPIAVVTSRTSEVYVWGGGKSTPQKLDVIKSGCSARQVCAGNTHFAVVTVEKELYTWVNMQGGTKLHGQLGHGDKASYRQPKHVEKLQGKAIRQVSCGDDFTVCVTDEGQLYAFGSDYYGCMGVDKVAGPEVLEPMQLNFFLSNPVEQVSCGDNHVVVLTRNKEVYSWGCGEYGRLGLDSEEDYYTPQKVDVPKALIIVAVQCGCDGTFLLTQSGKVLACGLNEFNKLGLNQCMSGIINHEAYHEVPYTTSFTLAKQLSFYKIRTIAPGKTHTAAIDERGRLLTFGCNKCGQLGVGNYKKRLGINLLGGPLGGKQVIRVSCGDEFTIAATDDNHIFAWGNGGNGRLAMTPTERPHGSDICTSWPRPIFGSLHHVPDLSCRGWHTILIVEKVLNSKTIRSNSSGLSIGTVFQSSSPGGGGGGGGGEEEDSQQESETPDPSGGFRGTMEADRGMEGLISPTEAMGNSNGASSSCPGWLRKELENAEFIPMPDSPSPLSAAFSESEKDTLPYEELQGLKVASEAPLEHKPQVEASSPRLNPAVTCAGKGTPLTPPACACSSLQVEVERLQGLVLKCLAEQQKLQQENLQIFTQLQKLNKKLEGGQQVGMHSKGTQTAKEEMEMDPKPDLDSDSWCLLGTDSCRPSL

Experiment [5] has as its target Serine/threonine-protein kinase N2 (Homo sapiens, UniProt Q16513).
The target of experiment [6] is Ribosomal protein S6 kinase beta-1 (Homo sapiens, UniProt P23443).
Chain of Ribosomal protein S6 kinase beta-1 (P23443 whole entry): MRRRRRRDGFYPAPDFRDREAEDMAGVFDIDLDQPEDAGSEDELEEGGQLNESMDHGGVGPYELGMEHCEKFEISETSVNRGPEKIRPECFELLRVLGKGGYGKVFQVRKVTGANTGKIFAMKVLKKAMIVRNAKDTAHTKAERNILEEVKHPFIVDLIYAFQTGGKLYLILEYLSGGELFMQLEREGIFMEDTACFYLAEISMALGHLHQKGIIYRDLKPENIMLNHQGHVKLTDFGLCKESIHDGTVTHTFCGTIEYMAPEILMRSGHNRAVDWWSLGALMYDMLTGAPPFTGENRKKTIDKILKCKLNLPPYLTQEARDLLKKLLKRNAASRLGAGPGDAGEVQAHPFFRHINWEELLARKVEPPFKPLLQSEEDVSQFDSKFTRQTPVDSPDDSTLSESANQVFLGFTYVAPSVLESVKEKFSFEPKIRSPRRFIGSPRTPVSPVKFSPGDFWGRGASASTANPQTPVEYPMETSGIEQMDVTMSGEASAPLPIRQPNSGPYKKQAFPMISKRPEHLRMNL
The target in experiment [7] is T2, Serine/threonine-protein kinase 4 (Homo sapiens, UniProt Q13043).
T2 sequence (Q13043 whole entry): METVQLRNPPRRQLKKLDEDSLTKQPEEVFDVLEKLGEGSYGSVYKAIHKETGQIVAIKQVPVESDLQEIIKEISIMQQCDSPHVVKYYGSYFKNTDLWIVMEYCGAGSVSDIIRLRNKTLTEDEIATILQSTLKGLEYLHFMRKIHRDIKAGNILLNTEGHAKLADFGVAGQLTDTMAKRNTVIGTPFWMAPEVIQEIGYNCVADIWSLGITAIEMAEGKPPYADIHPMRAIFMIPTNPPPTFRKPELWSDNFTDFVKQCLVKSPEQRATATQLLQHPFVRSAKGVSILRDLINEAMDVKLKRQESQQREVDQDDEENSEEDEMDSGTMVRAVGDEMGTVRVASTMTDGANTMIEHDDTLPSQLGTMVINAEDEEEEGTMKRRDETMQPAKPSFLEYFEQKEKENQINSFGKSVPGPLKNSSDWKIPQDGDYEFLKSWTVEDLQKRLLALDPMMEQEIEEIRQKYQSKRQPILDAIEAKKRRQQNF

Experiment [8] deals with Serine/threonine-protein kinase PAK 2 (Homo sapiens, UniProt Q13177).
For experiment [9], the target named is RAC-gamma serine/threonine-protein kinase (Homo sapiens, UniProt Q9Y243).
Chain of RAC-gamma serine/threonine-protein kinase (Q9Y243 whole entry): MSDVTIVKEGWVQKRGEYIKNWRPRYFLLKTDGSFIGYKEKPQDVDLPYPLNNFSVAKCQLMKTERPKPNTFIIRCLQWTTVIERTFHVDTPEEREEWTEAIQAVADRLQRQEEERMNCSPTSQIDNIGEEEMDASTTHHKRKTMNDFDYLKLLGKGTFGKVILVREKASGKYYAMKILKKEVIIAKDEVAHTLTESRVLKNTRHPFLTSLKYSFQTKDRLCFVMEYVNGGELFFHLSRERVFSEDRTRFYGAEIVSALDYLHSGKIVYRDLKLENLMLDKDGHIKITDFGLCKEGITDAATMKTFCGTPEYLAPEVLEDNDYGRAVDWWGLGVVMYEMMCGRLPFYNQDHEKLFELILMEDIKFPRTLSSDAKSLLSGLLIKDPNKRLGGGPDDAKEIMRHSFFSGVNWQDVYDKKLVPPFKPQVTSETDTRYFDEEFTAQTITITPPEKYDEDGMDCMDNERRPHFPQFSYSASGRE
In experiment [10] the target is Serine/threonine-protein kinase MRCK alpha (Homo sapiens, UniProt Q5VT25).

The source made the active and inactive calls.
Also: in the data inactive means no Kd found up to 30 µM.

Chain of Myosin-14 (Q7Z406 whole entry): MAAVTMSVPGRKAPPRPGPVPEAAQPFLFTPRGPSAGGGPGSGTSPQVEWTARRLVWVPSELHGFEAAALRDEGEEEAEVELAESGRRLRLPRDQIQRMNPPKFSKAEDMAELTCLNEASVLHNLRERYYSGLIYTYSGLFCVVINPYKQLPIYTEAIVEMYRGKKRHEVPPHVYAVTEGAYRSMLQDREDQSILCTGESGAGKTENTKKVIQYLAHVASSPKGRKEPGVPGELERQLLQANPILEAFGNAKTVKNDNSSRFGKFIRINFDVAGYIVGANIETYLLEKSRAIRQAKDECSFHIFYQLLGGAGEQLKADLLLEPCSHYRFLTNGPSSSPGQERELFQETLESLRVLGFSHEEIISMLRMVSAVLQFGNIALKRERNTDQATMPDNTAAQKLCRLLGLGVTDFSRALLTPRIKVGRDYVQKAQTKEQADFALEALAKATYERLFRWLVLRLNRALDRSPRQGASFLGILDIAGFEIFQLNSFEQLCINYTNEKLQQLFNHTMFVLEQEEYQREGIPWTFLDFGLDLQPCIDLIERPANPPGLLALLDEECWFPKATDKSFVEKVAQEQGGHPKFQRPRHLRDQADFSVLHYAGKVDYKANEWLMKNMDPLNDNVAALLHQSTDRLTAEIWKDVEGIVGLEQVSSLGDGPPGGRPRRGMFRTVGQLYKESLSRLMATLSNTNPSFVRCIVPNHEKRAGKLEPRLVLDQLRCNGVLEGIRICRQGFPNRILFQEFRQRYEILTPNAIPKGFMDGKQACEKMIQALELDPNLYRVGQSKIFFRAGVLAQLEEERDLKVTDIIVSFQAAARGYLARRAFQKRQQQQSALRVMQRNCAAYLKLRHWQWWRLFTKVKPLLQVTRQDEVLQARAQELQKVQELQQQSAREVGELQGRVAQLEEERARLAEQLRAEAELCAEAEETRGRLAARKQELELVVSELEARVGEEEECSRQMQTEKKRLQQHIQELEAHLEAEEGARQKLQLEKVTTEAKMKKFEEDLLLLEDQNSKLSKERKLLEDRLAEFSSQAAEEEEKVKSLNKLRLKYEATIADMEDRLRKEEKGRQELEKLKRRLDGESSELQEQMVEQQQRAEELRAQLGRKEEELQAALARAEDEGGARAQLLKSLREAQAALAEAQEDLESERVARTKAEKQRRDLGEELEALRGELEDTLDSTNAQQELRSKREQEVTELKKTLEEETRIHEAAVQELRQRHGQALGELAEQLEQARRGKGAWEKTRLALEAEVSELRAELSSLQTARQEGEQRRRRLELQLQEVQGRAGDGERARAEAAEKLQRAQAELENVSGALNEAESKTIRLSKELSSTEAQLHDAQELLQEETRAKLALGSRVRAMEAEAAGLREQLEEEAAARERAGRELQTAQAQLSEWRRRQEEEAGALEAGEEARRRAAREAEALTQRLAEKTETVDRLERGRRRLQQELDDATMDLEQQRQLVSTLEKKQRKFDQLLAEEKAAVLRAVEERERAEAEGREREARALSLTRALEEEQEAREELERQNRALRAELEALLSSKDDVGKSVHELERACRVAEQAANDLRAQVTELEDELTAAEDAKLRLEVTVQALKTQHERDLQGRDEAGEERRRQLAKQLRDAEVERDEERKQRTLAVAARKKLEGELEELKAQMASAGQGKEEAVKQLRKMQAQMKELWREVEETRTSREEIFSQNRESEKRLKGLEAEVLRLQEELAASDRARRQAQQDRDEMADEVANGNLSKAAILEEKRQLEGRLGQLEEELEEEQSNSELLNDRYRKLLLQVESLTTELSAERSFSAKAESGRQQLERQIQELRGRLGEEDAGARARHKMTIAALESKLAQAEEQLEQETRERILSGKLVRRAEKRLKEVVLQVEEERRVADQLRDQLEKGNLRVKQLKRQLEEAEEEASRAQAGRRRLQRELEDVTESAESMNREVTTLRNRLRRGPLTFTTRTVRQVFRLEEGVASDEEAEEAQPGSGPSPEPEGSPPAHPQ
Chain of Cyclin-dependent kinase 13 (Q14004 whole entry): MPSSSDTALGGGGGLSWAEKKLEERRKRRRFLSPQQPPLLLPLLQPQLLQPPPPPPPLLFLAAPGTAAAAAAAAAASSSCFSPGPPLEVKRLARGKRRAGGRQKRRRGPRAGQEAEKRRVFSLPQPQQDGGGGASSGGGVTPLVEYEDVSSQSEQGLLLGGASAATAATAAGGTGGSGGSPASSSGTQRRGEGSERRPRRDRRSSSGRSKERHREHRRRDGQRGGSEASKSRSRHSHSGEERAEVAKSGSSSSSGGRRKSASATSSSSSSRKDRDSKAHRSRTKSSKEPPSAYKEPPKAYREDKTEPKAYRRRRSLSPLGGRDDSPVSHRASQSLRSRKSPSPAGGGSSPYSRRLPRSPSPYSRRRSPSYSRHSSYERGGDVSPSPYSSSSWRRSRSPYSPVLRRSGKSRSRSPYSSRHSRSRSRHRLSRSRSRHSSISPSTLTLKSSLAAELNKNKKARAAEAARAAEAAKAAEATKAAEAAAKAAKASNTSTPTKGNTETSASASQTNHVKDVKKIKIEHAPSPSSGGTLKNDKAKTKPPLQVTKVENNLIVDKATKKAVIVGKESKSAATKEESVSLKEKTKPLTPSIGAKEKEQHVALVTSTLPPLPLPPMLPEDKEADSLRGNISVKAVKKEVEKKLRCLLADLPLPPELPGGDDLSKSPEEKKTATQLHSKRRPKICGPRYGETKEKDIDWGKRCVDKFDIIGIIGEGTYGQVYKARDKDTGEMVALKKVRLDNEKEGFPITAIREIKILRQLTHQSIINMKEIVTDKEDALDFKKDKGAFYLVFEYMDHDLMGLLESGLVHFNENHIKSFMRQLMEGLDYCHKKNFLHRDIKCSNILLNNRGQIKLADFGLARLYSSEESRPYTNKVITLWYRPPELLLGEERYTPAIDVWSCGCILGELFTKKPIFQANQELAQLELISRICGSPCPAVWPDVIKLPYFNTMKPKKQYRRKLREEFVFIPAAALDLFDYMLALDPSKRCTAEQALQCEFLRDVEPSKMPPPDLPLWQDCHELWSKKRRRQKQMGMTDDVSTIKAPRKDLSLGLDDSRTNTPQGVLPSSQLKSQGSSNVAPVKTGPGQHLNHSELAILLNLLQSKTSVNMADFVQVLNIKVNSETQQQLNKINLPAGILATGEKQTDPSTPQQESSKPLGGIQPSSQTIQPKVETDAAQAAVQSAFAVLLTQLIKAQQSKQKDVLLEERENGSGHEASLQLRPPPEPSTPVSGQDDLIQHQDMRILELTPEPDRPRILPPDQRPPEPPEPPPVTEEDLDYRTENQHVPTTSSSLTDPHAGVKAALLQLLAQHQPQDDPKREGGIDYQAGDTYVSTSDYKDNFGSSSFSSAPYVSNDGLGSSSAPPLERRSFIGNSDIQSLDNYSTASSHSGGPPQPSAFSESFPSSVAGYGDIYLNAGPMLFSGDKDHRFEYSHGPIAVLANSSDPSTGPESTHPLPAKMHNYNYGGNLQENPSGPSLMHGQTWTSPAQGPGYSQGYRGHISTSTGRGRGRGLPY

For `C[C@H]1CNCCCN1S(=O)(=O)c1cccc2cncc(F)c12`, the Kd (in experiment [1]; at Ephrin type-A receptor 2; in experiment [2]; in experiment [3]; at Midasin; on Myosin-14) was > 30 µM (inactive) each time. Besides, the Kd in [4] is > 30 µM (inactive); in experiment [5] it was 0.285 µM (active); in experiment [6] it was > 30 µM (inactive); in experiment [7] it was > 30 µM (inactive); on Activated CDC42 kinase 1, > 30 µM (inactive).

Turning to `COc1cc(Nc2ncc3c(n2)-c2ccc(Cl)cc2C(c2c(F)cccc2OC)=NC3)ccc1C(=O)O` [ALISERTIB], the Kd (in [1]; in experiment [3]; at Midasin; at Myosin-14; in experiment [4]; in experiment [8]) was > 30 µM (inactive) throughout. Also, in experiment [7], the Kd is > 30 µM (inactive).

With `CNC(=O)c1ccccc1Sc1ccc2c(/C=C/c3ccccn3)n[nH]c2c1` [AXITINIB], the Kd (in experiment [3]; on Midasin; on Myosin-14) was > 30 µM (inactive) each time.

Consider `NC(=O)Nc1cc(-c2cccc(F)c2)sc1C(=O)N[C@H]1CCCNC1` [AZD-7762], for which the Kd in experiment [9] was > 30 µM (inactive); in experiment [10], > 30 µM (inactive); in experiment [1], > 30 µM (inactive); on Ephrin type-A receptor 2, > 30 µM (inactive); in experiment [2] it was 0.284 µM (active); in [3] it was > 30 µM (inactive). Further, the Kd at Midasin was > 30 µM (inactive); at Myosin-14, > 30 µM (inactive); in [4], > 30 µM (inactive); in experiment [5], 3.1 µM (active); in experiment [6], > 30 µM (inactive); in [7] it was 0.056 µM (active). For the same compound, the dissociation constant (Kd) on Activated CDC42 kinase 1 is 1.09 µM (active).

Take `CC(C)(C)c1nc(-c2cccc(NS(=O)(=O)c3c(F)cccc3F)c2F)c(-c2ccnc(N)n2)s1` [DABRAFENIB]: the Kd (in experiment [10]; in experiment [1]; at Ephrin type-A receptor 2; in experiment [3]; at Midasin; on Myosin-14) was > 30 µM (inactive) each time. In addition, the Kd in [4] is 0.053 µM (active); in [5], > 30 µM (inactive); in experiment [7], > 30 µM (inactive).

In the case of `Cn1cc(C2=C(c3cn(C4CCN(Cc5ccccn5)CC4)c4ccccc34)C(=O)NC2=O)c2ccccc21` [ENZASTAURIN], the Kd (in experiment [3]; on Midasin; on Myosin-14) was > 30 µM (inactive) in each case.

As for `C[C@@H](Oc1cc(-n2cnc3ccc(CN4CCN(C)CC4)cc32)sc1C(N)=O)c1ccccc1C(F)(F)F` [GSK-461364], the Kd (in experiment [3]; on Midasin; at Myosin-14) was > 30 µM (inactive) throughout.

`O=C(Nc1cc(C(F)(F)F)cc(C(F)(F)F)c1)c1cc(Cl)ccc1O` [IMD-0354]: the Kd (in experiment [1]; at Ephrin type-A receptor 2; in [2]; in [3]; at Midasin; at Myosin-14) was > 30 µM (inactive) in each case. Also, the Kd (in [4]; in experiment [8]; in [5]; in [7]; on Activated CDC42 kinase 1) was > 30 µM (inactive) in each case.

Take `CNC(=O)c1cccc2cc(Oc3ccnc4cc(OCC5(N)CC5)c(OC)cc34)ccc12` [LUCITANIB]: the Kd (in experiment [9]; in experiment [10]; in experiment [1]; on Ephrin type-A receptor 2; in experiment [2]; in experiment [3]) was > 30 µM (inactive) in each case. In addition, the Kd (at Midasin; at Myosin-14; in experiment [4]; in [8]; in [5]; in [6]) was > 30 µM (inactive) each time. Also, the Kd (in experiment [7]; on Activated CDC42 kinase 1) was > 30 µM (inactive) in each case.

Regarding `Cc1[nH]c(/C=C2\C(=O)Nc3ccccc32)c(C)c1CCC(=O)O` [ORANTINIB], the Kd (in experiment [1]; in experiment [3]; on Midasin; at Myosin-14; in experiment [4]; in [8]) was > 30 µM (inactive) each time.

In the case of `NC(=O)c1c(OCc2c(F)cc(Br)cc2F)nsc1NC(=O)NCCCCN1CCCC1` [OSI-632], the Kd (in experiment [3]; on Midasin; on Myosin-14; in [4]; in experiment [7]) was > 30 µM (inactive) throughout.

With `CC(=O)NCC(=O)N1[C@@H]2CC[C@H]1c1ccc(Nc3ncc(C(F)(F)F)c(NC4CCC4)n3)cc12` [PF-03814735], the Kd in experiment [1] was > 30 µM (inactive); at Midasin, > 30 µM (inactive); in [4] it was > 30 µM (inactive); in [7], 0.828 µM (active).

`O=C(NOCCO)c1cc(CN2OCCCC2=O)c(F)c(F)c1Nc1ccc(I)cc1F` [RO-4987655]: the Kd (in experiment [3]; at Midasin; at Myosin-14) was > 30 µM (inactive) throughout.

Consider `N#CC[C@H](C1CCCC1)n1cc(-c2ncnc3[nH]ccc23)cn1` [RUXOLITINIB], for which the Kd (in experiment [3]; on Midasin; at Myosin-14) was > 30 µM (inactive) each time.

For `Cn1ncc(Cl)c1-c1cc(C(=O)N[C@H](CN)Cc2ccc(F)c(F)c2)oc1Cl` [UPROSERTIB], the Kd (in experiment [10]; in experiment [1]; at Ephrin type-A receptor 2; in [2]; in [3]; on Midasin) was > 30 µM (inactive) in each case. In addition, the Kd (on Myosin-14; in experiment [4]; in [8]; in experiment [5]; in experiment [6]; in experiment [7]) was > 30 µM (inactive) throughout. Moreover, the Kd on Activated CDC42 kinase 1 is > 30 µM (inactive).

For the compound `C[C@@H](N)c1ccc(C(=O)Nc2ccnc3[nH]ccc23)cc1` [Y-39983], the Kd (in experiment [9]; in [10]; in experiment [1]; on Ephrin type-A receptor 2; in experiment [2]; in [3]) was > 30 µM (inactive) in each case. Further, the Kd on Midasin is > 30 µM (inactive); at Myosin-14, > 30 µM (inactive); in experiment [4], > 30 µM (inactive); in [8], > 30 µM (inactive); in experiment [5] it was 0.028 µM (active); in experiment [7], > 30 µM (inactive). In addition, the Kd on Activated CDC42 kinase 1 is > 30 µM (inactive).
